Test results from US5591773A, “Inhibition of cataract formation, diseases resulting from oxidative stress, and HIV replication by caffeic acid esters” (priority 1994, dated 1997).
“And” between values parts separate entries of the source, which are not always exact repeats. Equal values may be shown once. “Also recorded” adds a separate entry of the source.

Assays:
[1] = system: 8-OHdGua in epidermal DNA; test: TPA-induced 8-OHdGua formation in epidermal DNA of SENCAR mice; format: in vivo
Protocol: (§1) FIGS. 2A-2D. CAPE-mediated inhibition of TPA-induced oxidative processes in SENCAR mice. Mice were topically treated with 6.5 nmol CAPE 30 min prior to 6.5 nmol TPA, and this regimen was repeated 20 h later. Mice were sacrificed 1 h after the last treatment and the skin removed for determination of: (FIG. 2A) PMN infiltration (by measuring myeloperoxidase (MPO)); (FIG. 2B) H2 O2; (FIG. 2C) HMdUrd (HMdU); and (FIG. 2D) 8-OHdGua (8-OHdG), according to procedures described in the "Experimental Details" Section, infra. .quadrature., controls treated with acetone in place of CAPE and TPA; , treatment with acetone followed by TPA; .box-solid., treatment with CAPE followed by TPA. Results are expressed as mean ± SE (bars) from two experiments (2 mice/experiment) in the CAPE series. Data for acetone (ACT)- and TPA-treated mean values were collected from over 20 experiments.
(§2) C) MPO, H2 O2, and Oxidized DNA Bases. SENCAR mice were pretreated with CAPE for 30 min; then 6.5 nmol (4 μg) TPA/mouse topically applied to the dorsal skin. After 20 h, the CAPE and TPA treatment (1x) was repeated (2x treatment). One h after the second treatment, the mice were sacrificed by cervical dislocation, and 12.5-mm punches were obtained to be used separately for MPO and H2 O2 determinations. The remainder of the treated mouse skin or the combined skins from two mice were used for separation of epidermal cells. This was done by heating the skin at 55° C. for 30 s followed by rapid immersion into an ice-cold water bath (45). After the epidermis was scraped off, the presence of oxidized DNA base derivatives was measured in the epidermal DNA. All of these end points were analyzed by published procedures and are briefly described below.
The epidermis was homogenized and lysed, and the proteins and RNA were removed by proteinase K and RNase digestions, respectively (20). The DNA was separated and purified on A.S.A.P. columns (Boehringer-Mannheim Biochemicals) and precipitated with isopropyl alcohol.
The pellet was then washed with 70% ethyl alcohol, dried, and dissolved in 10 mM Tris.cndot.HCl-100 mM NaCl buffer, pH 7.0, according to the manufacturer's procedure. The DNA was sheared and enzymatically digested to nucleosides, and the hydrolysates were separated by HPLC (Beckman, Model 344) on an ODS column (Altex, 1×25 cm; 5 μm particle size) (50). The fractions that eluted after 30 ml were combined (excluding those containing normal nucleosides) and dried. The oxidized nucleosides were detected by ^3 H-postlabeling with [^3 H]acetic anhydride, followed by HPLC analysis of ^3 H-containing acetates in the presence of marker acetates (50). The results are presented as the number of oxidized nucleosides/10^4 normal bases, unless otherwise stated.
(§3) ^a Mice were treated as described in the legend to FIG. 2, except tha

[2] = system: TPA-induced cataracts in eyes of rabbits; test: TPA-induced cataracts in rabbits in vivo; design: species or system white New Zealand rabbits; settings: for cataract appearance, rabbit No. 5 (in words): conclusion of the experiment; for cataract appearance, other test animals (in words): rabbit, in vivo
Protocol: B) Test animals. Six healthy young (6-8 weeks old) white New Zealand rabbits of both sexes were used for the experiments. Each animal had normal eyes as confirmed by ocular examination by slit lamp.
C) Treatment of animals and monitoring the eye alterations. Cataracts were induced by the direct application of both TPA and CAPE into the eye chamber. On every third day, 0.05 ml of the TPA solution (200 μg/ml PBS) was injected into the anterior chamber of both eyes via a puncture at the corneo-scleral limbus with a fine 0.3×42 mm needle joined to a tuberculin syringe. The animals were all given local anesthesia with HUMACAIN eye drops (human, Godollo, Hungary) under sterile conditions for each application. One hour after TPA was injected, 0.05 ml of the CAPE solution (50 μg/ml) was administered into the anterior chamber of only the left eye, as above. The right eye of each animal received no further treatment. This procedure was repeated a total of 16 times. Periodic ocular examinations by slit lamp were performed after the 6th, 12th, and final drug applications. Subsequently, examinations were made on the 10th and 23rd days after the last drug treatment. After each ocular examination, the physical findings were recorded and photodocumentation of the eye changes were performed. The photographic documentary was executed in the following manner. Firstly, lenses were illuminated by a fiber optic light source from behind and photographs were taken from a distance of 5-6 cm. The diapositive black and white images on paper were transferred into an IBM personal computer (system 2, model 30) using a Sony-2-Cue CCD video camera that was equipped with Fujinon TV zoom objective (1:1.8) via a 17.5-105 signal-transfer system. Finally, with these computer image reconstructions, the areas of the lens opacifications were delineated and quantified using the Olympus image analyzer C-2 morphometry version 2.2 program.

[3] = system: TPA-induced PMN infiltration in mouse skin (MPO); test: TPA-induced PMN infiltration (MPO) in dorsal skin of SENCAR mice; format: in vivo
Protocol: as §1
A) Treatment of Animals and Assays. Female SENCAR (6-8 weeks old) and CD-1 mice (about 7 weeks old) were purchased from Biological Testing, National Cancer Institute (Frederick, Md.) and from Charles River Laboratory (Stone Ridge, N.Y.), respectively. The mice were acclimated for at least 1 week before use. They were subjected to a 12-h light/12-h dark cycle, housed at 20°±2° C. in a room with 10 cycles of air exchanges/h, given food and water ad libitum, and observed for any indication of ill health. Before topical application of any test agents, their backs were shaved and only those without hair growth after 48 h were used.
as §2
The assay for MPO was carried out according to the procedure of Metcalf et al. (53) with some modifications (20), and the results are expressed as units/cm^2, where a unit is defined as that degrading 1 μmol H2 O2 /min at 25° C. The presence of MPO in the mouse ears was measured in the homogenates. They were prepared by mincing the ears and homogenizing them in an ice-cold water bath with a polytron homogenizer, either twice for 20 s each or three times for 10 s each. Each homogenate was analyzed in duplicate and the results are expressed as mean MPO (units/mg protein) ±SE for each of the homogenates.
as §3

[4] = CAPE 6.5 nmol, TPA 6.5 nmol, 2x

Compound | 8-OHdGua/10^5 bases ([1]; TPA alone, 6.5 nmol, SE 6.3 on next line) | Size of cataract, Control (TPA-treated right eye) ([2]; TPA 0.05 ml of 200 μg/ml into anterior chamber every third day, 16 times, one line per animal) | induction of cataracts in live rabbits (in words) ([2]; TPA injected into anterior chamber) | cataract appearance, rabbit No. 5 (in words) [2] | cataract appearance, other test animals (in words) [2] | MPO ([3]; TPA alone, 6.5 nmol, mean ± SE (spread on next printed line: 7.6)) [units/cm^2 skin] | 8-OHdGua/10^5 bases ([1]; CAPE 6.5 nmol then TPA 6.5 nmol, 2x, (2 experiments), SE 0.8 on next line) | 8-OHdGua suppression below acetone controls (basal levels) [1, 4] [%] | decline of 8-OHdGua formation [1, 4] [%] | 8-OHdGua/10^5 bases ([1]; CAPE 650 nmol then TPA 6.5 nmol, 2x, (2 experiments), SE 1.1 on next line) | inhibition of inflammatory processes, particularly oxidation of bases in DNA (in words) ([1]; compared with untreated blanks) | area of TPA-induced cataracts larger in eye without CAPE than in CAPE-injected eye ([2]; 5 of 6 animals) | Size of cataract, CAPE (TPA + CAPE treated left eye) ([2]; CAPE 0.05 ml of 50 μg/ml 1 h after TPA, 16 times, one line per animal) | Size of cataract, % of Control ([2]; left (TPA + CAPE) vs right (TPA) eye of the same animal, one line per animal) | lens appearance, effect of CAPE (in words) ([2]; left eye, intracameral CAPE after TPA) | animals with smaller cataract in CAPE-treated eye ([2]; rabbits, termination of the experiment) | decrease of TPA-induced PMN infiltration ([3]; CAPE 6.5 nmol 30 min before each of two TPA 6.5 nmol applications, SENCAR mouse skin) | MPO ([3]; CAPE 6.5 nmol pretreatment then TPA 6.5 nmol, 2x, (4 experiments), SE 0.3 on next line) [units/cm^2 skin] | MPO ([3]; CAPE 650 nmol pretreatment then TPA 6.5 nmol, 2x, (4 experiments), SE 2.0 on next line) [units/cm^2 skin] | TPA-mediated PMN infiltration and formation of HMdUrd and 8-OHdGua at high dose (in words) ([3]; CAPE 650 nmol/treatment, 2x, 20 h apart, vs 6.5 nmol)
CCCCCCCCCCCCCC(=O)O[C@@H]1[C@@H](C)[C@@]2(O)[C@@H](C=C(CO)C[C@]3(O)C(=O)C(C)=C[C@@H]23)[C@@H]2C(C)(C)[C@]12OC(C)=O [TPA, 12-O-tetradecanoylphorbol-13-acetate] | 11.8 /10^5 bases | 63.139 relative units and 14.704 relative units and 104.97 relative units and 111.62 relative units and 99.923 relative units and 28.578 relative units | Cataracts of various sizes and types were evident by ocular examination in both eyes starting after the 12th TPA injection; also recorded: potent inducer of cataracts in the eyes of live rabbits | a rather large arched subcortical condensed immature but developing cataract is evident | larger, more mature cataracts that had spread deeply into the nuclear region | 23.7 | – | – | – | – | – | – | – | – | – | – | – | – | – | –
O=C(/C=C/c1ccc(O)c(O)c1)OCCc1ccccc1 [CAPE, Caffeic acid phenethyl ester] | – | – | – | a small capsular-subcapsular immature cataract is evident | generally smaller and more immature | – | 1.4 /10^5 bases | 70 | ~170 | 9.4 /10^5 bases | down to the background levels represented by untreated blanks | 2.2-44.2 times | 1.428 relative units and 6.739 relative units and 10.77 relative units and 28.722 relative units and 30.199 relative units and 43.184 relative units | 2.25% and 45.83% and 10.26% and 25.73% and 30.22% and 151.11% | significantly clearer; also recorded: produced a prophylactic effect on incipient cataracts; also recorded: significantly reduced the pathological effects of this phorbol ester | 5 out of the 6 | ≈ 85% and 85% | 5.9 | 10.8 | this reduction was not as effective as that caused by the lower (6.5 nmol) dose of CAPE
